Experimental data published in ChEMBL document CHEMBL4177736, “Monoterpene indole alkaloid azine derivatives as MDR reversal agents” (Bioorg Med Chem, 2018).
Calls of active or inactive are those of the source. No cut-off for these calls is given here.

Experiments:
BHK-21 [1] = assay: Cytotoxicity against MRP1-expressing BHK21 cells assessed as growth inhibition at 20 uM after 72 hrs by MTT assay; format: functional; settings: Mesocricetus auratus; for inhibition of growth at 20 µM: BHK-21, 72 h, read-out: GI
BHK-21 [2] = assay: Cytotoxicity against wild type BHK21 cells assessed as reduction in cell viability at 20 uM after 72 hrs by MTT assay; format: cell-based, Mesocricetus auratus; settings: hamster, bhk-21, 72 h
NIH3T3 [3] = assay: Cytotoxicity against MDR1-expressing mouse NIH/3T3 cells assessed as growth inhibition at 20 uM after 72 hrs by MTT assay; format: functional, cell-based
NIH3T3 [4] = assay: Cytotoxicity against mouse NIH/3T3 cells assessed as reduction in cell viability at 20 uM after 72 hrs by MTT assay; format: cell-based; settings: nih3t3, 72 h
MRP1 [5] = target: T1, MRP1 (Homo sapiens, UniProt P33527); assay: Inhibition of MRP1 (unknown origin) expressed in HEK293FlpIN cells assessed as reduction in calcein-AM efflux at 20 uM incubated for 30 mins by flow cytometric analysis relative to control; format: cell-based; settings: HEK293FlpIN cells expressing MRP1, probe calcein-AM
[6] = Inhibition of P-gp (unknown origin) expressed in mouse NIH/3T3 cells assessed as reduction in rhodamine 123 efflux at 20 uM incubated for 30 mins by flow cytometric analysis relative to control; format: cell-based; settings: Homo sapiens
BCRP (ABCG2) = target: T2, BCRP (ABCG2) (Homo sapiens, UniProt Q9UNQ0); assay: Inhibition of BCRP (unknown origin) expressed in HEK293 cells assessed as reduction in mitoxantrone efflux at 20 uM incubated for 30 mins by flow cytometric analysis relative to control; format: cell-based; settings: HEK293 cells expressing BCRP, probe mitoxantrone
T2 sequence (Q9UNQ0 whole entry): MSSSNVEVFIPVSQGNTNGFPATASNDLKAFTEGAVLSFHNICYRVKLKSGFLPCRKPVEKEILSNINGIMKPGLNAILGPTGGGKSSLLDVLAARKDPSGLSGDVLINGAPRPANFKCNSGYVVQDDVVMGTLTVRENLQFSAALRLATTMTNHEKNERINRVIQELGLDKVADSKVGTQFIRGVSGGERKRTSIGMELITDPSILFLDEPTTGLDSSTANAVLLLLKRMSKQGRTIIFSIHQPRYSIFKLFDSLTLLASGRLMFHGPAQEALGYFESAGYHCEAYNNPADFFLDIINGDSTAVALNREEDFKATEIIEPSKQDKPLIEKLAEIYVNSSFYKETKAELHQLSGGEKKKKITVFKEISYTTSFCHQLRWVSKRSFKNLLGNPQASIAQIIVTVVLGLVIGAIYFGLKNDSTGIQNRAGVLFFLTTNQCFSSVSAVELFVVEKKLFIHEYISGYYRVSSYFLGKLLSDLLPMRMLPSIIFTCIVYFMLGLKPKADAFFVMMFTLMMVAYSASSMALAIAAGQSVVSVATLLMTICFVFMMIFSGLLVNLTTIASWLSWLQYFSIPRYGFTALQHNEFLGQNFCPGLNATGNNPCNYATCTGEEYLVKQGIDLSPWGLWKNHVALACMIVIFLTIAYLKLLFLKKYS

[7] = target: Multidrug resistance-associated protein 1 (Homo sapiens, UniProt P33527); assay: (§1) Inhibition of MRP1 (unknown origin) expressed in BHK21 cells assessed as GSH efflux at 20 uM incubated for 3 hrs measured every 30 secs for 2 mins by GSH reductase enzyme based assay (reference value: 100%); format: cell-based; settings: 3 h, 20 µM
BHK-21 [8] = assay: Cytotoxicity against MRP1-expressing BHK21 cells assessed as cell death after 72 hrs by MTT assay; format: functional, cell-based; settings: Mesocricetus auratus, BHK-21, 72 h
MRP1 [9] = target: T1, MRP1; assay: as §1; format: cell-based; settings: BHK21 cells expressing MRP1, probe GSH
BHK-21 [10] = assay: Resistance ratio of EC50 for MRP1-expressing BHK21 cells to EC50 for wild type BHK21 cells; format: functional, Mesocricetus auratus

T1 sequence (P33527 whole entry): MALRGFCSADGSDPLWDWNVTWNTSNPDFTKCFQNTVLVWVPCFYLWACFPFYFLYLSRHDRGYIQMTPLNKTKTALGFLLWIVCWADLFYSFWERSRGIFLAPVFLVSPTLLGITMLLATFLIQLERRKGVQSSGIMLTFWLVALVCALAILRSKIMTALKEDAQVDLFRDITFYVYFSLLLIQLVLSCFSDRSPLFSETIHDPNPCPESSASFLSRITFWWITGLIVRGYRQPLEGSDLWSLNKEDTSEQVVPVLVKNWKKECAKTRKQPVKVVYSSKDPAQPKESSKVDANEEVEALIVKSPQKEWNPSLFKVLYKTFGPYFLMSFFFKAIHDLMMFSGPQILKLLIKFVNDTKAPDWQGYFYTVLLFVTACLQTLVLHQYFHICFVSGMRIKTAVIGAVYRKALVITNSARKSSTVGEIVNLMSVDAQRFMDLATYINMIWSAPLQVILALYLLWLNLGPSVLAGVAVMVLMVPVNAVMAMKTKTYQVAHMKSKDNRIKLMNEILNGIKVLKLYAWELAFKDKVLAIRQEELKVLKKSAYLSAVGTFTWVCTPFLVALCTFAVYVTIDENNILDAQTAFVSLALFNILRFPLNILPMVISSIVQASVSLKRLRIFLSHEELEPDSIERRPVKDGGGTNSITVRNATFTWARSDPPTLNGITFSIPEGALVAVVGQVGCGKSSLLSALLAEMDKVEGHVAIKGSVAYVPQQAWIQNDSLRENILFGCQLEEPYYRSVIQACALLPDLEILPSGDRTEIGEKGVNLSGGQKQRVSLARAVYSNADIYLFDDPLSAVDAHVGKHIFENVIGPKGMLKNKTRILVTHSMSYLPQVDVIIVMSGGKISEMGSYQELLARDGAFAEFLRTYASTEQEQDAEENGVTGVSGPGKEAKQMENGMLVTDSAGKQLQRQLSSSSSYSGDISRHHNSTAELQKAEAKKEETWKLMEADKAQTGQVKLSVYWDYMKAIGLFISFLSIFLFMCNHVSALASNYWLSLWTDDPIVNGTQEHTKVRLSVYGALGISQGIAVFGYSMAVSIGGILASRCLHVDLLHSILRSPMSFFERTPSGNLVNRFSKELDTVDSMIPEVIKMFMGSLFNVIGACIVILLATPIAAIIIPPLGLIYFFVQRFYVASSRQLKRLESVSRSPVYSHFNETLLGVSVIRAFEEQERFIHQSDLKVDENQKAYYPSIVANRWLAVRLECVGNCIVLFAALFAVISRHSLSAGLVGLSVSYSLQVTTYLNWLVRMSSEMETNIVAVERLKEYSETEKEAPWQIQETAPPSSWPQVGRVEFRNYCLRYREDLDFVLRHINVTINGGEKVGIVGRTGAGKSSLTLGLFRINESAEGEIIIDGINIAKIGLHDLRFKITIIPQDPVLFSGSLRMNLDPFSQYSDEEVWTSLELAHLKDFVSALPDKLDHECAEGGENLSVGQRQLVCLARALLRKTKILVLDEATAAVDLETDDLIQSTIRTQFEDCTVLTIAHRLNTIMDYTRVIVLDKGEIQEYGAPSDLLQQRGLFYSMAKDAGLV
Chain of Multidrug resistance-associated protein 1 (P33527 whole entry): as above

Structure (SMILES)	inhibition of growth at 20 µM (BHK-21 [1]) [%]	Activity (BHK-21 [2])	growth inhibition (GI) (NIH3T3 [3])	Activity (NIH3T3 [4])	inhibition at 0.5 h, 20 µM (MRP1 [5]) [%]	inhibition [6] [%]	inhibition at 0.5 h, 20 µM (BCRP (ABCG2)) [%]	inhibition (INH) [7]	growth inhibition (GI) (BHK-21 [1])	EC50 (BHK-21 [8]) [µM]	inhibition at 3 h, 20 µM (MRP1 [9]) [%]	Ratio EC50 (BHK-21 [10])
CC[C@H]1CN(C)[C@H]2Cc3c([nH]c4ccccc34)/C(=N/N=C\c3cccc(Cl)c3)C[C@H]1[C@H]2C(=O)OC	90 to 98	Non-Toxic	Active	Non-Toxic	13.6	21.4	-2.4					
CC[C@@H]1CN(C)[C@H]2Cc3c([nH]c4ccccc34)/C(=N/N=C\C=C\c3ccccc3)C[C@H]1[C@H]2C(=O)OC	> 90	Non-Toxic	Active	Non-Toxic	10	26.7	-2	Not Active				
CC[C@@H]1CN(C)[C@H]2Cc3c([nH]c4ccccc34)/C(=N/N=C\c3ccc[nH]3)C[C@H]1[C@H]2C(=O)OC			Active	Non-Toxic	15.2	4.5	3.7					
CC[C@@H]1CN(C)[C@H]2Cc3c([nH]c4ccccc34)/C(=N/N=C\C(C)(C)C)C[C@H]1[C@H]2C(=O)OC		Non-Toxic	Active	Non-Toxic	2.5	3.1	1.3		Active	57	63 to 75	0.83
CC[C@H]1CN(C)[C@H]2Cc3c([nH]c4ccccc34)/C(=N/N=C\c3ccc([N+](=O)[O-])cc3)C[C@H]1[C@H]2C(=O)OC	90 to 98	Non-Toxic	Active	Non-Toxic	47.5	7.5	2.2					
CC[C@@H]1CN(C)[C@H]2Cc3c([nH]c4ccccc34)/C(=N/N=C\c3ccccc3[N+](=O)[O-])C[C@H]1[C@H]2C(=O)OC	90 to 98	Non-Toxic	Active	Non-Toxic	14.6	42.9	-0.1					
CC[C@H]1CN(C)[C@H]2Cc3c([nH]c4ccccc34)/C(=N/N=C\c3ccccc3[N+](=O)[O-])C[C@H]1[C@H]2C(=O)OC			Active	Non-Toxic	29.5	57.4	4.5					
CC[C@@H]1CN(C)[C@H]2Cc3c([nH]c4ccccc34)/C(=N/N=C\c3cccc(Cl)c3)C[C@H]1[C@H]2C(=O)OC	90 to 98	Non-Toxic	Active	Non-Toxic	10.8	20.2	-1.3					
CC[C@H]1CN(C)[C@H]2Cc3c([nH]c4ccccc34)/C(=N/N=C\C3CCCC3)C[C@H]1[C@H]2C(=O)OC			Active	Non-Toxic	35.5	30.3	0.8					
